Results as given in US9713605B2, “Ameliorative or preventive effect of Antrodia cinnamomea in arthritis, cartilage destruction, or chondrocyte death” (Simpson Biotech Co., Ltd., priority 2011, dated 2017).

Tests used:
IL-1β = assay: Relative expression level of IL-1β mRNA in footpad (quantitative PCR) in CAIA; type: in vivo, mice; conditions: day 10, mean±SEM, arthritis group 41.13±6.465
Source text: (§1) An arthritogenic monoclonal antibody (mAb) cocktail and lipopolysaccharide (LPS) were purchased from Immuno-Biological Laboratories (Hamburg, Germany). Arthritis was induced by the method of Terato et al. (Terato et al., Induction of arthritis with monoclonal antibodies to collagen. J Immunol. 1992 Apr. 1; 148(7):2103-8), using an arthritogenic mAb cocktail that contained four mAbs (F10, A2, D8, and D1) in equal amounts and using LPS as adjuvant. Three clones (F10, A2, and D8) were of type IgG2a, and one clone (D1) was type IgG2b. To induce arthritis, each mouse was injected intravenously with 2 mg of anti-CII mAbs followed by an intraperitoneal injection of 50 μg (BALB/c background) LPS (Escherichia coli 0111:B4) three days later. Isotype IgG (anti-mouse IgG, 2 mg, Jackson Lab.) supplied with LPS and only LPS induction groups were applied in same condition.
Total RNA was isolated using the Trizol method. Footpad tissues were homogenized in Trizol lysis buffer followed by chloroform extraction (Life Technologies). The RNA was eluted with 20 μl of RNase-free water. All RNA was quantified by spectrophotometer, and the optical density (OD) 260/280 nm ratio was determined. For cDNA synthesis, 5 μg total RNA was reverse transcribed at 50° C. for 60 min using 200 units of Superscript III reverse transcriptase (Invitrogen). The primer sequence was as follows: IL1-β, forward primer (5′-[…]), reverse primer (5′-CTCGCAGCAGCACATCAAC); and GAPDH, forward primer (5′-[…]), reverse primer (5′-[…]). The SYBR Green master mix kit (Bio-Rad) was used for all reactions with real-time PCR. Briefly, PCR was performed as follows: 94° C. for 2 min followed by 40 cycles of denaturation; annealing; and extension at 94° C. for 15 s, 64° C. for 30 s, and 72° C. for 45 s; and final extension at 72° C. for 10 min. The PCR reaction was performed in triplicate for each sample for all the products and for the GAPDH control. Ratios for each product relative to GAPDH mRNA were calculated for each sample. The data presented are expressed as the fold-increase or fold-decrease in mRNA level. For all real-time PCR assays, the products were run out on a gel to confirm the presence of a single band.
(§2) Data were analyzed by the Mann-Whitney U test and were expressed as mean±SEM. A P value <0.05 was considered significant.
(§3) In each group, the subjects were given the sample once daily ([…]) since day 0 to day 9 via oral intake and the subjects was administrated before the antibody and LPS injection.

[1] = tested on: collagen antibody-induced arthritis (CAIA) in BALB/c mice; assay: Footpad thickness change in acute stage of CAIA; type: in vivo; conditions: day 10; oral once daily day 0 to day 9; mean±SEM; arthritis group 1.0446±0.0369
Source text: (§4) Male BALB/cByJNarl (BALB/c) mice were purchased at age six weeks from National Laboratory Animal Center (Taiwan) and subsequently bred and maintained under specific pathogen-free conditions in the Laboratory Animal Center of National Defense Medical Center (Taipei, Taiwan).
as §1
(§5) Arthritis development was monitored in the four limbs using a macroscopic scoring system. Briefly, one point was given for each swollen or red toe; one point for each swollen joint (metatarsal-phalangeal joints, metacarpal-phalangeal joints, proximal interphalangeal joints, and distal interphalangeal joints); and five points for a swollen ankle (maximum score=15 per limb and 60 per mouse) (Nandakumar et al., Collagen type II (CII)-specific antibodies induce arthritis in the absence of T or B cells but the arthritis progression is enhanced by CII-reactive T cells. Arthritis Res. Ther. 6 (2004), R544-R550). The mice were examined on days 0, 3, 7, 10 and 14 after the mAb injection. The thickness of each paw was measured in a noncontact manner using a Simplified Geometry Measurement System (Advanced Design Research Technology Co., Ltd). Images of the paws of each mouse were recorded three times (Chia et al., A noncontact footpad thickness assay to evaluate rheumatoid disease. Rheumatol Int. 2010 February; 30(4):547-50). One trained researcher who was blinded to group treatments evaluated the image data independently.
as §2, §3

[2] = tested on: collagen antibody-induced arthritis (CAIA) in BALB/c mice; assay: Disease activity score (macroscopic scoring of four limbs) in acute stage of CAIA; type: in vivo; conditions: oral once daily; for disease activity score (maximum 60 per mouse): day 10, mean±SEM, arthritis group 53.71±2.763
Source text: as §4, §1, §5, §2, §3

[3] = tested on: chondrocyte death in ankle joints of arthritic mice; assay: Histopathological chondrocyte death score of ankle joints in CAIA; type: in vivo; conditions: ankle joint harvested on day 10; mean±SD; arthritis group 1.929±0.450
Source text: as §1, with “Isotype IgG (anti-mouse IgG, 2 mg, Jackson Lab.) supplied with LPS and only LPS induction groups were applied in same condition.” left out
Ankle joints of arthritic mice were given chondrocyte death scores of 0, 1, 2, and 3 to describe the chondrocyte death according to the following criteria: 0, normal (FIG. 7A); 1, mild chondrocyte death (around less than ⅓ chondrocyte death in cartilage of all sections, FIGS. 7B, 7C); 2, moderate chondrocyte death (between ⅓ to ⅔ area chondrocyte death in the cartilage, FIG. 7D); 3, severe chondrocyte death (more than ⅔ chondrocyte death in the cartilage, FIG. 7E). Two independent observers scored each slide, and the average score was used.
(§6) Data were analyzed by the t test and are expressed as mean±SD. […]

[4] = tested on: cartilage destruction in ankle joints of arthritic mice; assay: Histopathological cartilage destruction score of ankle joints in CAIA; type: in vivo; conditions: ankle joint harvested on day 10; mean±SD; arthritis group 2.063±0.776
Source text: as §1
The ankle joints were fixed in 10% formalin, decalcified, trimmed, and embedded. Sections were prepared from the tissue blocks and stained with hematoxylin and eosin. Histopathological scoring was performed as described below. […] Two independent observers scored each slide, and the average score was used.
as §6

[5] = tested on: collagen antibody-induced arthritis (CAIA) in BALB/c mice; assay: Histopathological arthritis score of ankle joints in CAIA; type: in vivo; conditions: ankle joint harvested on day 10; mean±SEM; arthritis group 4.178±0.2023
Source text: as §1
The ankle joints were fixed in 10% formalin, decalcified, trimmed, and embedded. Sections were prepared from the tissue blocks and stained with hematoxylin and eosin. Histopathological scoring was performed as described below. Ankle joints of arthritic mice were given arthritis scores of 0, 1, 2, 3, 4, and 5 to describe the arthritis according to the following criteria: 0, normal; 1, minimal infiltration of polymorphonuclear leukocytes in the periarticular area; 2, mild infiltration; 3, moderate infiltration; 4, marked infiltration; and 5, severe infiltration (Doherty, 2001. Risk factors for progression of knee osteoarthritis. Lancet 358:775-6). Three independent observers scored each slide, and the average score was used.
as §2, §3

| Compound | relative expression levels of IL-1β (relative to GAPDH mRNA) (IL-1β) | footpad thickness (average increase compared to baseline) [1] | disease activity score, difference versus arthritis group ([2]; day 7) | disease activity score (maximum 60 per mouse) [2] | chondrocyte death score (0-3) [3] | cartilage destruction score (0-3) [4] | arthritis score (histopathological, 0-5) [5] |
| --- | --- | --- | --- | --- | --- | --- | --- |
| CC(C)=CCOc1ccc([C@H]2C(=O)N(O)C(=O)[C@@H]2CC(C)C)cc1 (relative stereo) [D group, 3R*,4S*-1-hydroxy-3-isobutyl-4-[4-(3-methyl-2-butenyloxy)phenyl]pyrrolidine-2,5-dione] | 10.141±2.765 | 0.729±0.114 mm | significant difference | 39.687±5.238 | 1.042±0.439 | 1.167±0.144 | 3.458±0.559 |
| CC(C)=CCOc1ccc(C2=C(CC(C)C)C(=O)OC2=O)cc1 [A group, 3-isobutyl-4-[4-(3-methyl-2-butenyloxy)phenyl]furan-2,5-dione] | 39.61±3.849 | 0.840±0.139 mm |  | 46.0±2.537 |  |  | 2.093±0.541 |
| CC(C)=CCOc1ccc(C2=C(CC(C)C)C(=O)NC2=O)cc1 [B group, 3-isobutyl-4-[4-(3-methyl-2-butenyloxy)phenyl]-1H-pyrrol-2,5-dione] | 16.873±4.82 | 0.837±0.177 mm |  | 45.58±4.818 |  |  |  |
| CC(C)=CCOc1ccc(C2=C(CC(C)C)C(=O)N(O)C2=O)cc1 [C group, 3-isobutyl-4-[4-(3-methyl-2-butenyloxy)phenyl]-1H-pyrrol-1-ol-2,5-dione] | 20.714±4.751 | 0.8605±0.098 mm |  | 47.718±3.581 | 0.58±0.555 | 1.000±0.467 | 3.25±0.421 |
